# Tested on: SARS-CoV-2
# Assay: microbe, parasite or virus in culture
# Conditions: Severe acute respiratory syndrome coronavirus 2, Vero C1008, 48 h
smiles,measurement,setting,value
CC(C)OC(=O)[C@H](C)N[P@](=O)(OC[C@@]1(F)O[C@@H](n2ccc(=O)[nH]c2=O)[C@](C)(O)[C@@H]1O)Oc1ccccc1 [ADAFOSBUVIR],IC50,,> 20 µM
same,IC50,read-out: pIC50 (converted),> 20 µM
O=C(NCCN1CCN(c2ncccn2)CC1)C12CC3CC(CC(C3)C1)C2 [ADATANSERIN],IC50,,> 20 µM
same,IC50,read-out: pIC50 (converted),> 20 µM
C=CCn1c(=O)c2cnc(Nc3ccc(N4CCN(C)CC4)cc3)nc2n1-c1cccc(C(C)(C)O)n1 [ADAVOSERTIB],IC50,,> 20 µM
same,IC50,read-out: pIC50 (converted),> 20 µM
Nc1[nH]cnc2ncnc1-2 [ADENINE],IC50,,> 20 µM
same,IC50,read-out: pIC50 (converted),> 20 µM
Nc1ncnc2c1ncn2[C@@H]1O[C@H](COP(=O)(O)O)[C@@H](O)[C@H]1O [ADENOSINE PHOSPHATE],IC50,,> 20 µM
same,IC50,read-out: pIC50 (converted),> 20 µM
Nc1ncnc2c1ncn2[C@@H]1O[C@H](COP(=O)(O)OP(=O)(O)OP(=O)(O)O)[C@@H](O)[C@H]1O [ADENOSINE TRIPHOSPHATE],IC50,,> 20 µM
same,IC50,read-out: pIC50 (converted),> 20 µM
Nc1ncnc2c1ncn2[C@@H]1O[C@H](CO)[C@@H](O)[C@H]1O [ADENOSINE],IC50,,> 20 µM
same,IC50,read-out: pIC50 (converted),> 20 µM
CC1(C)C(=O)Nc2cc3[nH]c(-c4ccncc4)nc3cc21 [ADIBENDAN],IC50,,> 20 µM
same,IC50,read-out: pIC50 (converted),> 20 µM
CCN(CC)CCOC(=O)C(c1ccccc1)c1ccccc1 [ADIPHENINE],IC50,,> 20 µM
same,IC50,read-out: pIC50 (converted),> 20 µM
CNCC(=O)c1ccc(O)c(O)c1 [ADRENALONE],IC50,,> 20 µM
same,IC50,read-out: pIC50 (converted),> 20 µM
C[C@]12CCC(=O)C=C1CC[C@@H]1[C@@H]2C(=O)C[C@]2(C)C(=O)CC[C@@H]12 [ADRENOTERONE],IC50,,> 20 µM
same,IC50,read-out: pIC50 (converted),> 20 µM
CCN1CCN(Cc2ccc(-c3cc4c(N[C@H](C)c5ccccc5)ncnc4[nH]3)cc2)CC1 [AEE-788],IC50,,> 20 µM
same,IC50,read-out: pIC50 (converted),> 20 µM
CC(=O)NC(Cc1ccccc1)C(=O)O (stereo not drawn) [AFALANINE],IC50,,> 20 µM
same,IC50,read-out: pIC50 (converted),> 20 µM
CN(C)C/C=C/C(=O)Nc1cc2c(Nc3ccc(F)c(Cl)c3)ncnc2cc1O[C@H]1CCOC1 [AFATINIB],IC50,,> 20 µM
same,IC50,read-out: pIC50 (converted),> 20 µM
CC/C(=C(\c1ccc(O)cc1)c1ccc(OCCN(C)C)cc1)c1ccccc1 [AFIMOXIFENE],IC50,,> 20 µM
same,IC50,read-out: pIC50 (converted),> 20 µM
Cc1c(CN(C)C(=O)/C=C/c2cnc3c(c2)CCC(=O)N3)oc2ccccc12 [AFN-1252],IC50,,> 20 µM
same,IC50,read-out: pIC50 (converted),> 20 µM
CC(C)(C)NCC(O)COc1cccc2c1C(=O)OC2 (stereo not drawn) [AFUROLOL],IC50,,> 20 µM
same,IC50,read-out: pIC50 (converted),> 20 µM
COc1ccc2cccc(CCNC(C)=O)c2c1 [AGOMELATINE],IC50,,> 20 µM
same,IC50,read-out: pIC50 (converted),> 20 µM
NC(=O)c1ccc([N+](=O)[O-])cc1Cl [AKLOMIDE],IC50,,> 20 µM
same,IC50,read-out: pIC50 (converted),> 20 µM
Nc1ncc(-c2ccncc2)nc1Nc1ccc2[nH]ccc2c1 [AKN-028],IC50,,> 20 µM
same,IC50,read-out: pIC50 (converted),> 20 µM
CC(N)C(=O)OC(C)(C)Cc1ccc(Cl)cc1 (stereo not drawn) [ALAPROCLATE],IC50,,> 20 µM
same,IC50,read-out: pIC50 (converted),> 20 µM
CCCSc1ccc2[nH]c(NC(=O)OC)nc2c1 [ALBENDAZOLE],IC50,,> 20 µM
same,IC50,read-out: pIC50 (converted),> 20 µM
CC(C)(C)NCC(O)c1ccc(O)c(CO)c1 (stereo not drawn) [ALBUTEROL],IC50,,> 20 µM
same,IC50,read-out: pIC50 (converted),> 20 µM
CN1CCC(=C2c3ccccc3CCn3c(C=O)cnc32)CC1 [ALCAFTADINE],IC50,,> 20 µM
same,IC50,read-out: pIC50 (converted),> 20 µM
C=CCOc1ccc(CC(=O)O)cc1Cl [ALCLOFENAC],IC50,,> 20 µM
same,IC50,read-out: pIC50 (converted),> 20 µM
CCC(=O)OCC(=O)[C@@]1(OC(=O)CC)[C@H](C)C[C@H]2[C@H]3[C@H]([C@@H](O)C[C@@]21C)[C@@]1(C)C=CC(=O)C=C1C[C@H]3Cl [ALCLOMETASONE DIPROPIONATE],IC50,,> 20 µM
same,IC50,read-out: pIC50 (converted),> 20 µM
CCc1cc2c(cc1N1CCC(N3CCOCC3)CC1)C(C)(C)c1[nH]c3cc(C#N)ccc3c1C2=O [ALECTINIB],IC50,,> 20 µM
same,IC50,read-out: pIC50 (converted),> 20 µM
NCCCC(O)(P(=O)(O)O)P(=O)(O)O [ALENDRONIC ACID],IC50,,> 20 µM
same,IC50,read-out: pIC50 (converted),> 20 µM
C=CCC(N)Cc1ccccc1 (stereo not drawn) [ALETAMINE],IC50,,> 20 µM
same,IC50,read-out: pIC50 (converted),> 20 µM
CCCCC(CC)CNC(=N)NC(=N)NCCCCCCNC(=N)NC(=N)NCC(CC)CCCC (stereo not drawn) [ALEXIDINE],IC50,,> 20 µM
same,IC50,read-out: pIC50 (converted),> 20 µM
OC[C@H]1O[C@@H]2O[C@H]3[C@H](O)[C@@H](O)[C@@H](O[C@H]4[C@H](O)[C@@H](O)[C@@H](O[C@H]5[C@H](O)[C@@H](O)[C@@H](O[C@H]6[C@H](O)[C@@H](O)[C@@H](O[C@H]7[C@H](O)[C@@H](O)[C@@H](O[C@H]1[C@H](O)[C@H]2O)O[C@@H]7CO)O[C@@H]6CO)O[C@@H]5CO)O[C@@H]4CO)O[C@@H]3CO [ALFADEX],IC50,,> 20 µM
same,IC50,read-out: pIC50 (converted),> 20 µM
CC(=O)[C@H]1CC[C@H]2[C@@H]3CC[C@H]4C[C@H](O)CC[C@]4(C)[C@H]3C(=O)C[C@]12C [ALFAXALONE],IC50,,> 20 µM
same,IC50,read-out: pIC50 (converted),> 20 µM
COc1cc2nc(N(C)CCCNC(=O)C3CCCO3)nc(N)c2cc1OC (stereo not drawn) [ALFUZOSIN],IC50,,> 20 µM
same,IC50,read-out: pIC50 (converted),> 20 µM
COc1cc(Nc2ncc3c(n2)-c2ccc(Cl)cc2C(c2c(F)cccc2OC)=NC3)ccc1C(=O)O [ALISERTIB],IC50,,> 20 µM
same,IC50,read-out: pIC50 (converted),> 20 µM
C/C=C/C[C@@H](C)[C@@H](O)[C@H]1C(=O)N[C@@H](CC)C(=O)N(C)[C@H](C)C(=O)N(CC)[C@@H](C(C)C)C(=O)N[C@@H](C(C)C)C(=O)N(C)[C@@H](CC(C)C)C(=O)N[C@@H](C)C(=O)N[C@H](C)C(=O)N(C)[C@@H](CC(C)C)C(=O)N(C)[C@@H](CC(C)C)C(=O)N(C)[C@@H](C(C)C)C(=O)N1C [ALISPORIVIR],IC50,,> 20 µM
same,IC50,read-out: pIC50 (converted),> 20 µM
C=CCN1CCCC1CNC(=O)c1cc2nn[nH]c2cc1OC (stereo not drawn) [ALIZAPRIDE],IC50,,> 20 µM
same,IC50,read-out: pIC50 (converted),> 20 µM
NC(=O)NC1NC(=O)NC1=O (stereo not drawn) [ALLANTOIN],IC50,,> 20 µM
same,IC50,read-out: pIC50 (converted),> 20 µM
C=CC(=O)Nc1ccc2ncnc(Nc3ccc(OCc4cccc(F)c4)c(Cl)c3)c2c1 [ALLITINIB],IC50,,> 20 µM
same,IC50,read-out: pIC50 (converted),> 20 µM
C=CCC1(CC=C)C(=O)NC(=O)NC1=O [ALLOBARBITAL],IC50,,> 20 µM
same,IC50,read-out: pIC50 (converted),> 20 µM
Oc1ncnc2[nH]ncc12 [ALLOPURINOL],IC50,,> 20 µM
same,IC50,read-out: pIC50 (converted),> 20 µM
O=C1NC(=O)C(=O)C(=O)N1 [ALLOXAN],IC50,,> 20 µM
same,IC50,read-out: pIC50 (converted),> 20 µM
O=c1[nH]c(=O)c2nc3ccccc3nc2[nH]1 [ALLOXAZINE],IC50,,> 20 µM
same,IC50,read-out: pIC50 (converted),> 20 µM
C=CC[C@]1(O)CC[C@H]2[C@@H]3CCC4=CCCC[C@@H]4[C@H]3CC[C@@]21C [ALLYLESTRENOL],IC50,,> 20 µM
same,IC50,read-out: pIC50 (converted),> 20 µM
C=CCNc1nc(NCC=C)nc(N2CCN(C(c3ccc(F)cc3)c3ccc(F)cc3)CC2)n1 [ALMITRINE],IC50,,> 20 µM
same,IC50,read-out: pIC50 (converted),> 20 µM
CN(C)CCc1c[nH]c2ccc(CS(=O)(=O)N3CCCC3)cc12 [ALMOTRIPTAN],IC50,,> 20 µM
same,IC50,read-out: pIC50 (converted),> 20 µM
Cn1c(=O)cc(N2CCC[C@@H](N)C2)n(Cc2ccccc2C#N)c1=O [ALOGLIPTIN],IC50,,> 20 µM
same,IC50,read-out: pIC50 (converted),> 20 µM
Cc1[nH]cnc1CN1CCc2c(c3ccccc3n2C)C1=O [ALOSETRON],IC50,,> 20 µM
same,IC50,read-out: pIC50 (converted),> 20 µM
Cc1cn([C@H]2C[C@H](F)[C@@H](CO)O2)c(=O)[nH]c1=O [ALOVUDINE],IC50,,> 100 µM
same,IC50,read-out: pIC50 (converted),> 100 µM
Cc1nc(NC(=O)N2CCC[C@H]2C(N)=O)sc1-c1ccnc(C(C)(C)C(F)(F)F)c1 [ALPELISIB],IC50,,> 20 µM
same,IC50,read-out: pIC50 (converted),> 20 µM

# — ChEMBL document CHEMBL4651402, “Screening of ~5500 FDA-approved drugs and clinical candidates for anti-SARS-CoV-2 activity” (2021)
